Test results reported in patent US9889135B2, “Companion diagnostic for CDK4 inhibitors” (Memorial Sloan-Kettering Cancer Center, priority 2013, dated 2018).

Tests used:
[1] = test system: CHK2 mobility and KAP1 phosphorylation in WD/DDLS cell lines; test: markers of ATM activity by immunoblot; assay type: cell-based, human; conditions: LS8817, LS141, LS8107, LS8313 and LS7785-1
Text: (§1) Extracts from control and irradiated mouse embryo fibroblasts were included as a control. Tubulin is a control. (B) γH2AX and 53BP1 foci were scored in the indicated cell lines. As per (Doll et al., 2009; […] et al., 2012) having a cell with greater than 10 foci (white) is considered positive for DNA damage. As expected for WD/DDLS cell lines the basal level of DNA damage was quite high.

[2] = test system: E2F7 in WD/DDLS cell lines; test: E2F7 levels by immunoblot; assay type: cell-based, human; conditions: 48 hours
Text: FIG. 24. […] Tubulin is a loading control. This experiment was repeated at least twice for each cell line.

[3] = test system: MDM2 in LS0082, LS141 and LS8817 cells; test: MDM2 turnover (cycloheximide chase), responder cells; assay type: cell-based, human; conditions: 1 μM for 48 hrs, then cycloheximide
Description: (§2) The level of MDM2 was measured by immunoblot (center). Tubulin was a loading control. […] This experiment was repeated at least three times on different biologic replicates. […] Tubulin is a loading control. Data compiled from at least three independent experiments is plotted (mean and standard deviation) and a representative immunoblot is shown. […] The graphs are compiled from the data obtained in three independent biologic replicates and representative autoradiographs are shown.

[4] = test system: HAUSP in WD/DDLS cell lines; test: HAUSP levels by immunoblot; assay type: cell-based, human; conditions: 2 days of treatment
Description: FIG. 25A-D. Turnover of MDM2 is regulated post-translationally. […] Extracts were prepared and MDM2 was immunoprecipitated and the presence of HAUSP and MDM2 in the precipitates were determined by immunoblot. IgG was used as a non-specific antibody control for the immunoprecipitation. […] Tubulin is a loading control. HAUSP levels were reduced with shRNA in the indicated cells lines and the effect on protein expression (C) and the accumulation of senescence-associated (3-galactosidase positive cells measured (D). The mean and standard deviation was compiled from at least two independent experiments with each cell line and a representative immunoblot is shown.

[5] = test system: MDM2 in MCF7 breast cancer cells; test: MDM2 expression by immunoblot; assay type: cell-based
Description: (§3) Antibodies against CDK4 (3F121), MDM2 (N-20 and SMP14), total RB (IF8), Cyclin A (H432), p16 (C20), p53 (DO-1 and Bp53-12), tubulin (C20) and FLAG (M2) were obtained from Santa Cruz Biotechnology, phospho-Rb 780 (#9307) from Cell Signalling, and ARF (3642) from Abeam, HAUSP (A300-033A) from Bethyl Laboratories. Treated cells were lysed with buffer composed of 50 mM Tris-HCl, pH7.4, 250 mM NaCl, 5 mM EDTA, 0.5% NP40, 2 mM PMSF, and supplemented with protease inhibitors. Eighty micrograms of protein were resolved by SDS-PAGE and transferred to PVDF membranes. Membranes were incubated overnight with antibodies (1:1000). […] Cycles were repeated every four weeks and patients are still on trial. Pre-treatment biopsies were collected within two weeks of the first dose and post-treatment biopsies collected after at last three weeks of treatment. Extracts were prepared in 50 mM Tris-HCl, pH7.4, 150 mM NaCl, 1 mM EDTA, 1% NP40, 0.25% sodium deoxycholate and supplemented with mini-protease inhibitor cocktail (Roche). Tumor response was assessed by reference radiologist by CT scan every six weeks for 36 weeks, and every 12 weeks thereafter. The clinical trial was approved by the Institutional Review Board of Memorial Sloan-Kettering Cancer Center and all patients provided written informed consent (NCT01209598).

[6] = test system: MDM2 in T98G glioma cells; test: MDM2 expression by immunoblot; assay type: cell-based
Description: as §3

[7] = test system: MDM2 in DBTRG-05MG glioma cells; test: MDM2 expression by immunoblot; assay type: cell-based
Description: as §3

[8] = test system: MDM2 in DKMG glioma cells; test: MDM2 expression by immunoblot; assay type: cell-based
Description: as §3

[9] = test system: MDM2 in SNB19 glioma cells; test: MDM2 expression by immunoblot; assay type: cell-based
Description: as §3

[10] = test system: CEBPα, FABP4 and PPARγ mRNA in LS8107 and LS7785-10 cells; test: adipocyte differentiation marker mRNA; assay type: cell-based, human; conditions: seven days
Description: FIG. 11. […] Cell lines were maintained in DMEM High glucose (HG) supplemented with 10% heat-inactivated fetal bovine serum. Glioma cell lines, DKMG, SNB19, DBTRG-05MG, and […], were maintained in DMEM HG supplemented with 10% fetal bovine serum and 2 mM glutamine. The MCF7 breast cancer cell line was maintained in RPMI-1640 media supplemented with 10% fetal bovine serum and 2 mM glutamine.

[11] = test system: seven RB-positive patient derived WD/DDLS cell lines; test: cell number by Coulter Counter; assay type: cell-based, human; conditions: asynchronously growing cells, counted daily for 4 days
[12] = test system: γH2AX and 53BP1 foci in LS8817 cells; test: DNA damage foci; assay type: cell-based, human
Text: as §1

[13] = test system: γH2AX and 53BP1 foci in LS8107 and LS7785-10 cells; test: DNA damage foci; assay type: cell-based, human
Text: as §1

[14] = test system: LS8817 cells; test: PD0332991 induced senescence after knock down of p53 or INK4A products; assay type: cell-based, human
Description: LS8817 cells were infected with lentiviruses expressing either a scrambled (shSCR) or two independent p53 targeting (shp53a and shp53d2) shRNAs. […] The accumulation of senescence associated β-galactosidase (top), and the expression of MDM2 and p53 were determined by immunoblot (bottom). Coomassie staining of the gel indicated equivalent loading.

[15] = test system: MDM2 in LS7785-1 and LS7785-10 cells; test: MDM2 turnover (cycloheximide chase), non-responder cells; assay type: cell-based, human; conditions: non-responder cells LS7785-1 and LS7785-10; 1 μM for 48 hrs, then cycloheximide
Description: as §2

[16] = test system: catalase in WD/DDLS cell lines; test: catalase expression by immunoblot; assay type: cell-based, human; conditions: two senescing and two non-senescing cell lines
Text: FIG. 22. Additional immunoblot analysis in responder and non-responder cells. […] Actin is a loading control. This experiment was repeated at least three times for each cell line.

[17] = ratio of MDM2 detected by Image J scanning in treated versus untreated cultures

CC(=O)c1c(C)c2cnc(Nc3ccc(N4CCNCC4)cn3)nc2n(C2CCCC2)c1=O [PD0332991]
CHK2 mobility or KAP1 phosphorylation, markers of ATM activity [1]: did not induce significant changes
E2F7 protein amount ([2]; LS8107): did not change
E2F7 protein ([2]; LS8817, LS0082 and LS8313): induced accumulation
MDM2 stability / protein half-life [3]: markedly reduced
HAUSP levels [4]: did not change
MDM2 expression levels reduced compared to the non-treated cells [5]: greater than 34%
ΔMDM2 with PD [5, 17]: 0.08
MDM2 levels ([6]; cells that did not undergo senescence): unaffected
ΔMDM2 with PD [6, 17]: Not detected
MDM2 expression levels reduced compared to the non-treated cells [7]: greater than 34%
ΔMDM2 with PD [7, 17]: 0.49
MDM2 expression levels reduced compared to the non-treated cells [8]: greater than 34%
ΔMDM2 with PD [8, 17]: 0.66
MDM2 expression levels reduced compared to the non-treated cells [9]: greater than 34%
ΔMDM2 with PD [9, 17]: 0.08
CEBPα, FABP4 and PPARγ mRNA, markers of differentiated adipocytes [10]: None of these markers increased
growth arrest [11]: growth arrest within a single cell cycle
number of γH2Ax and 5313P1 foci [12]: reduced
number of foci [13]: largely unaffected
PD0332991 induced senescence ([14]; p16 and Arf knocked down): not affected
SA-β-gal positive cells ([14]; p53 deficient cells (two independent shRNAs)): still accumulated
MDM2 stability [15]: largely unaffected
catalase expression [16]: increased
